Measured values from the supplement of paper PMC10307832.

Experiments:
Assay in all cases: relative viability (nuclei count vs DMSO), 5 days (fraction); higher = more cells survive
A-427 = tested on: A-427
How it was run: (§1)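 Lung cancer cell lines were pin-tool dosed in 1536-well plates on the day after seeding, with either a lone drug or a fixed anchor-drug dose plus five library-drug doses (not always all listed) in √10 steps. Nuclei were counted on 4× images after 5 days. Relative viability is the ratio of treated-well to vehicle-well nuclei counts, with each value a median of duplicate plates.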

NCI-H1915 = tested on: NCI-H1915
How it was run: as §1

201T = tested on: 201T
How it was run: as §1

NCI-H596 = tested on: NCI-H596
How it was run: as §1

NCI-H1793 = tested on: NCI-H1793
How it was run: as §1

LXF-289 = tested on: LXF-289
How it was run: as §1

EMC-BAC-2 = tested on: EMC-BAC-2
How it was run: as §1

HCC-827 = tested on: HCC-827
How it was run: as §1

BEN = tested on: BEN
How it was run: as §1

NCI-H2126 = tested on: NCI-H2126
How it was run: as §1

EPLC-272H = tested on: EPLC-272H
How it was run: as §1

NCI-H358 = tested on: NCI-H358
How it was run: as §1

COR-L23 = tested on: COR-L23
How it was run: as §1

EKVX = tested on: EKVX
How it was run: as §1

NCI-H460 = tested on: NCI-H460
How it was run: as §1

LCLC-103H = tested on: LCLC-103H
How it was run: as §1

LK-2 = tested on: LK-2
How it was run: as §1

NCI-H1650 = tested on: NCI-H1650
How it was run: as §1

NCI-H2087 = tested on: NCI-H2087
How it was run: as §1

NCI-H1651 = tested on: NCI-H1651
How it was run: as §1

SW 1573 = tested on: SW 1573
How it was run: as §1

NCI-H2347 = tested on: NCI-H2347
How it was run: as §1

HCC-44 = tested on: HCC-44
How it was run: as §1

Cc1cnc(-c2cnc(NCCNc3ccc(C#N)cn3)nc2-c2ccc(Cl)cc2Cl)[nH]1 + Nc1ncn([C@H]2C[C@H](O)[C@@H](CO)O2)c(=O)n1 [Decitabine] (partner 2 µM)
relative viability (A-427; first compound 0.08 µM): 0.535 | relative viability (A-427; first compound 0.253 µM): 0.526 | relative viability (A-427; first compound 0.8 µM): 0.61 | relative viability (A-427; first compound 2.53 µM): 0.618 | relative viability (NCI-H1915; first compound 0.08 µM): 0.275 | relative viability (NCI-H1915; first compound 0.8 µM): 0.286 | relative viability (NCI-H1915; first compound 2.53 µM): 0.264 | relative viability (201T; first compound 0.08 µM): 0.817 | relative viability (201T; first compound 0.8 µM): 0.828 | relative viability (201T; first compound 2.53 µM): 0.849 | relative viability (NCI-H596; first compound 0.08 µM): 1.08 | relative viability (NCI-H596; first compound 0.253 µM): 0.995 | relative viability (NCI-H596; first compound 0.8 µM): 1.03 | relative viability (NCI-H596; first compound 2.53 µM): 1.07 | relative viability (NCI-H1793; first compound 0.08 µM): 0.494 | relative viability (NCI-H1793; first compound 0.253 µM): 0.514 | relative viability (NCI-H1793; first compound 0.8 µM): 0.583 | relative viability (NCI-H1793; first compound 2.53 µM): 0.541 | relative viability (LXF-289; first compound 0.08 µM): 0.374 | relative viability (LXF-289; first compound 0.253 µM): 0.364 | relative viability (LXF-289; first compound 0.8 µM): 0.392 | relative viability (LXF-289; first compound 2.53 µM): 0.398 | relative viability (EMC-BAC-2; first compound 0.08 µM): 1.15 | relative viability (EMC-BAC-2; first compound 0.253 µM): 0.911 | relative viability (EMC-BAC-2; first compound 0.8 µM): 0.912 | relative viability (EMC-BAC-2; first compound 2.53 µM): 0.995 | relative viability (HCC-827; first compound 0.08 µM): 0.328 | relative viability (HCC-827; first compound 0.253 µM): 0.299 | relative viability (HCC-827; first compound 0.8 µM): 0.326 | relative viability (HCC-827; first compound 2.53 µM): 0.287 | relative viability (BEN; first compound 0.08 µM): 0.768 | relative viability (BEN; first compound 0.253 µM): 0.716 | relative viability (BEN; first compound 0.8 µM): 0.663 | relative viability (BEN; first compound 2.53 µM): 0.8 | relative viability (NCI-H2126; first compound 0.08 µM): 0.585 | relative viability (NCI-H2126; first compound 0.253 µM): 0.602 | relative viability (NCI-H2126; first compound 0.8 µM): 0.539 | relative viability (NCI-H2126; first compound 2.53 µM): 0.58 | relative viability (EPLC-272H; first compound 0.08 µM): 0.436 | relative viability (EPLC-272H; first compound 0.253 µM): 0.353 | relative viability (EPLC-272H; first compound 0.8 µM): 0.352 | relative viability (EPLC-272H; first compound 2.53 µM): 0.467 | relative viability (NCI-H358; first compound 0.08 µM): 0.234 | relative viability (NCI-H358; first compound 0.253 µM): 0.208 | relative viability (NCI-H358; first compound 0.8 µM): 0.248 | relative viability (NCI-H358; first compound 2.53 µM): 0.213 | relative viability (COR-L23; first compound 0.08 µM): 0.521 | relative viability (COR-L23; first compound 0.253 µM): 0.367 | relative viability (COR-L23; first compound 0.8 µM): 0.521 | relative viability (COR-L23; first compound 2.53 µM): 0.548 | relative viability (EKVX; first compound 0.08 µM): 0.386 | relative viability (EKVX; first compound 0.253 µM): 0.315 | relative viability (EKVX; first compound 0.8 µM): 0.34 | relative viability (EKVX; first compound 2.53 µM): 0.351 | relative viability (NCI-H460; first compound 0.08 µM): 0.537 | relative viability (NCI-H460; first compound 0.253 µM): 0.454 | relative viability (NCI-H460; first compound 0.8 µM): 0.54 | relative viability (NCI-H460; first compound 2.53 µM): 0.488 | relative viability (LCLC-103H; first compound 0.08 µM): 0.732 | relative viability (LCLC-103H; first compound 0.253 µM): 0.722 | relative viability (LCLC-103H; first compound 0.8 µM): 0.751 | relative viability (LCLC-103H; first compound 2.53 µM): 0.728 | relative viability (LK-2; first compound 0.08 µM): 0.27 | relative viability (LK-2; first compound 0.253 µM): 0.275 | relative viability (LK-2; first compound 0.8 µM): 0.323 | relative viability (LK-2; first compound 2.53 µM): 0.395 | relative viability (NCI-H1650; first compound 0.08 µM): 0.478 | relative viability (NCI-H1650; first compound 0.253 µM): 0.259 | relative viability (NCI-H1650; first compound 0.8 µM): 0.397 | relative viability (NCI-H1650; first compound 2.53 µM): 0.443 | relative viability (NCI-H2087; first compound 0.08 µM): 0.282 | relative viability (NCI-H2087; first compound 0.8 µM): 0.286 | relative viability (NCI-H2087; first compound 2.53 µM): 0.204 | relative viability (NCI-H1651; first compound 0.08 µM): 0.626 | relative viability (NCI-H1651; first compound 0.253 µM): 0.523 | relative viability (NCI-H1651; first compound 0.8 µM): 0.587 | relative viability (NCI-H1651; first compound 2.53 µM): 0.625 | relative viability (SW 1573; first compound 0.08 µM): 0.583 | relative viability (SW 1573; first compound 0.253 µM): 0.457 | relative viability (SW 1573; first compound 0.8 µM): 0.474 | relative viability (SW 1573; first compound 2.53 µM): 0.354 | relative viability (NCI-H2347; first compound 0.08 µM): 0.708 | relative viability (NCI-H2347; first compound 0.253 µM): 0.55 | relative viability (NCI-H2347; first compound 0.8 µM): 0.65 | relative viability (NCI-H2347; first compound 2.53 µM): 0.65 | relative viability (HCC-44; first compound 0.08 µM): 0.846 | relative viability (HCC-44; first compound 0.253 µM): 0.561 | relative viability (HCC-44; first compound 0.8 µM): 0.925 | relative viability (HCC-44; first compound 2.53 µM): 1.02
